Tests used:
Assay in all cases: relative viability (nuclei count vs DMSO), 5 days (fraction); higher = more cells survive
[1] = compound: C1COCCN1C2=NC(=NC3=C2OC4=C3C=CC=N4)C5=CC(=CC=C5)NC(=O)C6=CN=C(C=C6)N + Cc1nc(Nc2ncc(C(=O)Nc3c(C)cccc3Cl)s2)cc(N2CCN(CCO)CC2)n1 [Dasatinib] (partner 0.075 µM)
Summary of the method: (§1)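 Medians of duplicate plates are given as relative viability. That measure is the nuclei count in treated wells divided by the count in vehicle wells. Counts were taken on 4× images of lung cancer cell lines in 1536-well plates, 5 days after pin-tool dosing the day after seeding with one drug alone or a fixed anchor-drug dose plus five library-drug doses (not always all listed) in √10 steps.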

[2] = compound: C1COCCN1C2=NC(=NC3=C2OC4=C3C=CC=N4)C5=CC(=CC=C5)NC(=O)C6=CN=C(C=C6)N + NC(=O)Nc1cc(-c2cccc(F)c2)sc1C(=O)N[C@H]1CCCNC1 [AZD7762] (partner 0.2 µM)
Summary of the method: as §1

SGI-1776 + AZD7762 = compound: CN1CCC(CNc2ccc3ncc(-c4cccc(OC(F)(F)F)c4)n3n2)CC1 [SGI-1776] + NC(=O)Nc1cc(-c2cccc(F)c2)sc1C(=O)N[C@H]1CCCNC1 [AZD7762] (partner 0.2 µM)
Summary of the method: as §1

Entinostat + Olaparib = compound: Nc1ccccc1NC(=O)c1ccc(CNC(=O)OCc2cccnc2)cc1 [Entinostat] + O=C(c1cc(Cc2n[nH]c(=O)c3ccccc23)ccc1F)N1CCN(C(=O)C2CC2)CC1 [Olaparib] (partner 8 µM)
Summary of the method: as §1

Cell Line | relative viability ([1]; first compound 0.02 µM) | relative viability ([1]; first compound 0.06325 µM) | relative viability ([1]; first compound 0.2 µM) | relative viability ([1]; first compound 0.6325 µM) | relative viability ([1]; first compound 2 µM) | relative viability ([2]; first compound 0.02 µM) | relative viability ([2]; first compound 0.06325 µM) | relative viability ([2]; first compound 0.2 µM) | relative viability ([2]; first compound 0.6325 µM) | relative viability ([2]; first compound 2 µM) | relative viability (SGI-1776 + AZD7762; first compound 0.08 µM) | relative viability (SGI-1776 + AZD7762; first compound 0.8 µM) | relative viability (SGI-1776 + AZD7762; first compound 2.53 µM) | relative viability (SGI-1776 + AZD7762; first compound 8 µM) | relative viability (Entinostat + Olaparib; first compound 0.02 µM) | relative viability (Entinostat + Olaparib; first compound 0.06325 µM) | relative viability (Entinostat + Olaparib; first compound 0.2 µM) | relative viability (Entinostat + Olaparib; first compound 0.6325 µM) | relative viability (Entinostat + Olaparib; first compound 2 µM)
H3255 | 0.358 | 0.362 | 0.35 | 0.295 | 0.315 | 0.923 | 0.959 | 0.856 | 0.859 | 0.7 | 1.05 | 0.899 | 0.939 | 0.728 | 0.606 | 0.51 | 0.454 | 0.364 | 0.308
NCI-H23 | 0.82 | – | 0.582 | 0.724 | 0.482 | 0.241 | 0.23 | 0.24 | 0.174 | 0.216 | 0.252 | 0.278 | 0.281 | 0.235 | 0.282 | 0.242 | 0.237 | 0.179 | 0.12
CAL-12T | 0.467 | 0.519 | 0.396 | 0.324 | 0.338 | 0.632 | 0.617 | 0.632 | 0.673 | 0.49 | 0.739 | 0.667 | 0.567 | 0.654 | 0.728 | 0.781 | 0.854 | 0.767 | 0.572
A-427 | 0.805 | 0.77 | 0.61 | 0.648 | 0.589 | 0.788 | 0.746 | 0.673 | 0.655 | 0.689 | 0.685 | 0.681 | 0.686 | 0.627 | 0.721 | 0.717 | 0.678 | 0.554 | 0.553
